{"source": "BigSolDB 2.1", "data": [{"compound": "OC[C@@H](O)C(O)[C@@H](O)CO", "note": "(some centres undefined)", "values": [{"measurement": "solubility (mole fraction)", "setting": "in acetone, 293.15 K", "value": 0.000202}, {"measurement": "solubility (mole fraction)", "setting": "in acetone, 298.15 K", "value": 0.00024}, {"measurement": "solubility (mole fraction)", "setting": "in acetone, 303.15 K", "value": 0.000302}, {"measurement": "solubility (mole fraction)", "setting": "in acetone, 308.15 K", "value": 0.000399}, {"measurement": "solubility (mole fraction)", "setting": "in acetone, 313.15 K", "value": 0.000542}, {"measurement": "solubility (mole fraction)", "setting": "in acetone, 318.15 K", "value": 0.000739}, {"measurement": "solubility (mole fraction)", "setting": "in acetone, 323.15 K", "value": 0.001}, {"measurement": "solubility (mole fraction)", "setting": "in ethanol, 293.15 K", "value": 0.00172}, {"measurement": "solubility (mole fraction)", "setting": "in ethanol, 298.15 K", "value": 0.0024}, {"measurement": "solubility (mole fraction)", "setting": "in ethanol, 303.15 K", "value": 0.00309}, {"measurement": "solubility (mole fraction)", "setting": "in ethanol, 308.15 K", "value": 0.00396}, {"measurement": "solubility (mole fraction)", "setting": "in ethanol, 313.15 K", "value": 0.00521}, {"measurement": "solubility (mole fraction)", "setting": "in ethanol, 318.15 K", "value": 0.00703}, {"measurement": "solubility (mole fraction)", "setting": "in ethanol, 323.15 K", "value": 0.0096}]}]}
